US8557839B2, “Fused ring azadecalin glucocorticoid receptor modulators” (Corcept Therapeutics, Inc., priority 2004, dated 2013)

Columns and labels:
glucocorticoid receptors [1] = molecular target: T1, glucocorticoid receptors (Homo sapiens, UniProt P04150); assay: Glucocorticoid receptor binding displacement assay with 3H-dexamethasone; set-up: This GR was a full-length steroid hormone receptor; host or cells: recombinant baculovirus-infected insect cells
T1 sequence (P04150 1-777): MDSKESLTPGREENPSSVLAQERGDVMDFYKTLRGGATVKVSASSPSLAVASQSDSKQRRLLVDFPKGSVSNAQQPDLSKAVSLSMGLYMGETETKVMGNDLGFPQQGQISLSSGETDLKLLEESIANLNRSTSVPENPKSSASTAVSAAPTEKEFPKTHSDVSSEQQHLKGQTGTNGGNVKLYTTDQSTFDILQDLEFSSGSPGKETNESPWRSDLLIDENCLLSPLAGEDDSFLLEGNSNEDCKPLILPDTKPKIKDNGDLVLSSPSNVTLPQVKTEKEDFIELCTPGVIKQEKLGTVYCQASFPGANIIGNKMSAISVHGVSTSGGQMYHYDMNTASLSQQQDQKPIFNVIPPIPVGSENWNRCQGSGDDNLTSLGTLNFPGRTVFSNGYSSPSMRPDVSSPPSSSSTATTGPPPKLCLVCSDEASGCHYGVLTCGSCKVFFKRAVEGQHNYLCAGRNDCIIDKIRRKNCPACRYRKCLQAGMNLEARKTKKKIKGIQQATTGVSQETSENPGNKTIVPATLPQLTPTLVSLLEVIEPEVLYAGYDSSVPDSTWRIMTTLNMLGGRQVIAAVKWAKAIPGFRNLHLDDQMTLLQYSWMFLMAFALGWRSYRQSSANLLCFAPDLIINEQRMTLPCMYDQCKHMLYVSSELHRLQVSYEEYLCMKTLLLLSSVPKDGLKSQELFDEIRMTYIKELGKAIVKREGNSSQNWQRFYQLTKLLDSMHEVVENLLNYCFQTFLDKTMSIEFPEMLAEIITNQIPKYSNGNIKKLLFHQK
Method: The source of the receptor was recombinant baculovirus-infected insect cells. This GR was a full-length steroid hormone receptor likely to be associated with heat-shock and other endogenous proteins.
For the Primary Screen, test compounds were tested at 1 μM in duplicate. These compounds were diluted from 10 mM stock in 100% DMSO. After dilution to 100 μM, 5 μl were added to 245 μl assay buffer to obtained 2 μM compound and 2% DMSO.
For the IC50 determinations, test compounds were tested at 6 concentrations in duplicate (concentration range depends on % inhibition binding that was obtained in the Primary Screen). Test compounds were diluted from 10 mM stock in 100% DMSO. The tested solutions were prepared at 2× final assay concentration in 2% DMSO/assay buffer.
All reagents and the assay plate were kept on ice during the addition of reagents. […] After the additions, the incubation mixture was mixed and incubated for 2.5 hrs at 4° C.
After 2.5 hrs incubation, unbound counts were removed with dextran coated charcoal (DCC) as follows: 25 μl of DCC solution (10% DCC in assay buffer) was added to all wells and mixed (total volume 225 μl). The plate was centrifuged at 4000 rpm for 10 minutes at 4° C. 75 μl of the supernatants (i.e.⅓ of total volume) was carefully pipetted into an optiplate. 200 μl of scintillation cocktail were added (Microscint-40, Packard Bioscience. B.V.). The plate was vigorously shaken for approx. 10 minutes and counted on Topcount.
The IC50 values were converted to Ki (the inhibition constant) using the Cheng-Prusoff equation.
Reagents: Assay buffer: 10 mM potassium phosphate buffer pH 7.6 containing 5 mM DTT, 10 mM sodium molybdate, 100 μM EDTA and 0.1% BSA.

glucocorticoid receptors [2] = molecular target: T1, glucocorticoid receptors; assay: GR functional assay using SW1353/MMTV-5 cells (dexamethasone-induced luciferase); type: cell-based; set-up: contains endogenous glucocorticoid receptors; endogenous in cells; host or cells: SW1353/MMTV-5 (human chondrosarcoma, stably carrying the pMAMneo-Luc reporter)
Method: SW1353/MMTV-5 is an adherent human chondrosarcoma cell line that contains endogenous glucocorticoid receptors. It was transfected with a plasmid (pMAMneo-Luc) encoding firefly luciferase located behind a glucocorticoid-responsive element (GRE) derived from a viral promoter (long terminal repeat of mouse mammary tumor virus). A stable cell line SW1353/MMTV-5 was selected with geneticin, which was required to maintain this plasmid.
SW1353/MMTV-5 cells were distributed in 96-well plates and incubated in medium (without geneticin) for 24 hrs (in the absence of CO2).

[3] = Ki from IC50 by Cheng-Prusoff, 2.5 nM 3H-dexamethasone, read-out: GR Binding

SMILES	Ki (glucocorticoid receptors [1]; [3]) [nM]	Ki (glucocorticoid receptors [2]; read-out: GR Functional) [nM]	Ki (glucocorticoid receptors [1]) [nM]	Ki (glucocorticoid receptors [2]) [nM]
CC(C)(C)c1ccc(S(=O)(=O)N2CCC3=Cc4c(cnn4-c4ccc(F)cc4)C[C@]3(Cc3ccccc3)C2)cc1	< 10	< 10		
COc1ccc(-n2ncc3c2C=C2CCN(S(=O)(=O)c4ccc(C(C)(C)C)cc4)C[C@@]2(Cc2ccccc2)C3)cc1	< 10	10 to 100		
Cc1ccc(-n2ncc3c2C=C2CCN(S(=O)(=O)c4ccc(C(C)(C)C)cc4)C[C@@]2(Cc2ccccc2)C3)cc1	< 10	> 100		
CC(C)(C)c1ccc(S(=O)(=O)N2CCC3=Cc4c(cnn4-c4ccccn4)C[C@]3(C)C2)cc1	10 to 100			
O=S(=O)(c1ccccc1)N1CCC2=Cc3c(cnn3-c3ccc(F)cc3)C[C@]2(CO)C1	10 to 100			
COCCCOC[C@]12Cc3cnn(-c4ccc(F)cc4)c3C=C1CCN(S(=O)(=O)c1ccc(C(C)(C)C)cc1)C2	< 10	< 10		
CC(C)(C)c1ccc(S(=O)(=O)N2CCC3=Cc4c(cnn4-c4ccc(F)cc4)C[C@]3(COCCC#N)C2)cc1	< 10	< 10		
CC(C)(C)c1ccc(S(=O)(=O)N2CCC3=Cc4c(cnn4-c4ccc(F)cc4)C[C@]3(COCCN3CCOCC3)C2)cc1	10 to 100	> 100		
CC(C)(C)c1ccc(S(=O)(=O)N2CCC3=Cc4c(cnn4-c4ccc(F)cc4)C[C@]3(COCCN3CCCCC3)C2)cc1	< 10	10 to 100		
COCCOC[C@]12Cc3cnn(-c4ccc(F)cc4)c3C=C1CCN(S(=O)(=O)c1ccc(F)cc1)C2	< 10	< 10		
COC[C@]12Cc3cnn(-c4ccc(F)cc4)c3C=C1CCN(S(=O)(=O)c1ccc(F)cc1)C2	< 10	10 to 100		
COC[C@]12Cc3cnn(-c4ccc(F)cc4)c3C=C1CCN(S(=O)(=O)c1ccc(C)cc1)C2	< 10	< 10		
COCCOC[C@]12Cc3cnn(-c4ccc(F)cc4)c3C=C1CCN(S(=O)(=O)c1ccccc1)C2	< 10	< 10		
COC[C@]12Cc3cnn(-c4ccc(F)cc4)c3C=C1CCN(S(=O)(=O)c1ccccc1)C2	< 10	10 to 100		
COCCOC[C@]12Cc3cnn(-c4ccc(F)cc4)c3C=C1CCN(S(=O)(=O)N(C)C)C2	> 100	> 100		
COC[C@]12Cc3cnn(-c4ccc(F)cc4)c3C=C1CCN(S(=O)(=O)N(C)C)C2	10 to 100	> 100		
CCCCS(=O)(=O)N1CCC2=Cc3c(cnn3-c3ccc(F)cc3)C[C@]2(COCCOC)C1	< 10	10 to 100		
COCCOC[C@]12Cc3cnn(C)c3C=C1CCN(S(=O)(=O)c1ccc(C(C)(C)C)cc1)C2	10 to 100	> 100		
CCCCn1ncc2c1C=C1CCN(S(=O)(=O)c3ccc(C(C)(C)C)cc3)C[C@@]1(COCCOC)C2	< 10	10 to 100		
COCCOC[C@]12Cc3cnn(C(C)C)c3C=C1CCN(S(=O)(=O)c1ccc(C(C)(C)C)cc1)C2	< 10	10 to 100		
COC[C@]12Cc3cnn(C(C)C)c3C=C1CCN(S(=O)(=O)c1ccc(C(C)(C)C)cc1)C2	10 to 100	> 100		
CCCCn1ncc2c1C=C1CCN(S(=O)(=O)c3ccc(C)cc3)C[C@@]1(COC)C2	10 to 100	> 100		
CC(C)(C)c1ccc(S(=O)(=O)N2CCC3=Cc4c(cnn4-c4ccc(F)cc4)C[C@]3(CN3CCC3)C2)cc1			< 10	10 to 100
C=CCNC[C@]12Cc3cnn(-c4ccc(F)cc4)c3C=C1CCN(S(=O)(=O)c1ccc(C(C)(C)C)cc1)C2	< 10	10 to 100		
CC(C)(C)c1ccc(S(=O)(=O)N2CCC3=Cc4c(cnn4-c4ccc(F)cc4)C[C@]3(CNCCO)C2)cc1	< 10	10 to 100		

SMILES	Ki (glucocorticoid receptors [1]; [3]) [nM]	Ki (glucocorticoid receptors [2]; read-out: GR Functional) [nM]	Ki (glucocorticoid receptors [1]) [nM]	Ki (glucocorticoid receptors [2]) [nM]
Cc1ccc(S(=O)(=O)N2CCC3=Cc4c(cnn4-c4ccc(F)cc4)C[C@]3(CN(C)C)C2)cc1	< 10	10 to 100		
Cc1ccc(S(=O)(=O)N2CCC3=Cc4c(cnn4-c4ccc(F)cc4)C[C@]3(CN3CCCC3)C2)cc1	< 10	< 10		
CN(C)C[C@]12Cc3cnn(-c4ccc(F)cc4)c3C=C1CCN(S(=O)(=O)c1ccc(F)cc1)C2	< 10	10 to 100		
O=S(=O)(c1ccc(F)cc1)N1CCC2=Cc3c(cnn3-c3ccc(F)cc3)C[C@]2(CN2CCCC2)C1	< 10	< 10		
O=S(=O)(c1ccccc1)N1CCC2=Cc3c(cnn3-c3ccc(F)cc3)C[C@]2(CN2CCCC2)C1	< 10	< 10		
CN(C)C[C@]12Cc3cnn(-c4ccc(F)cc4)c3C=C1CCN(S(=O)(=O)c1ccccc1)C2	< 10	10 to 100		
CN(CCO)C[C@]12Cc3cnn(-c4ccc(F)cc4)c3C=C1CCN(S(=O)(=O)c1ccc(C(C)(C)C)cc1)C2	< 10	< 10		
CCCCS(=O)(=O)N1CCC2=Cc3c(cnn3-c3ccc(F)cc3)C[C@]2(CN2CCOCC2)C1	10 to 100	> 100		
N#Cc1ccc(S(=O)(=O)N2CCC3=Cc4c(cnn4-c4ccc(F)cc4)C[C@]3(CN3CCOCC3)C2)cc1	< 10	> 100		
CCN(CC)C[C@]12Cc3cnn(-c4ccc(F)cc4)c3C=C1CCN(S(=O)(=O)c1ccccc1)C2	< 10	10 to 100		
CCN(CC)C[C@]12Cc3cnn(-c4ccc(F)cc4)c3C=C1CCN(S(=O)(=O)c1ccc(OC)cc1)C2	< 10	10 to 100		
O=S(=O)(c1ccccc1)N1CCC2=Cc3c(cnn3-c3ccc(F)cc3)C[C@]2(CN2CCCCC2)C1			< 10	10 to 100
COc1ccc(S(=O)(=O)N2CCC3=Cc4c(cnn4-c4ccc(F)cc4)C[C@]3(CN3CCCCC3)C2)cc1	10 to 100	10 to 100		
CCCCn1ncc2c1C=C1CCN(S(=O)(=O)c3ccc(C)cc3)C[C@@]1(CN1CCCCC1)C2	10 to 100			
CC(C)(C)c1ccc(S(=O)(=O)N2CCC3=Cc4c(cnn4CC(F)(F)F)C[C@]3(CN3CCCC3)C2)cc1	10 to 100	> 100		
CCCCn1ncc2c1C=C1CCN(S(=O)(=O)c3ccc(C(C)(C)C)cc3)C[C@@]1(CN(C)C)C2	10 to 100	> 100		
CCCCn1ncc2c1C=C1CCN(S(=O)(=O)c3ccc(C(C)(C)C)cc3)C[C@@]1(CN1CCCCC1)C2	< 10	10 to 100		
O=S(=O)(c1ccccn1)N1CCC2=Cc3c(cnn3-c3ccc(F)cc3)C[C@]2(CN2CCOCC2)C1	< 10			
CC(C)(C)c1ccc(S(=O)(=O)N2CCC3=Cc4c(cnn4-c4ccc(F)cc4)CC3(Cc3ccc(F)cc3)C2)cc1 (stereo not shown)			< 10	10 to 100
Fc1ccc(CC23Cc4cnn(-c5ccc(F)cc5)c4C=C2CCN(Cc2cccnc2)C3)cc1 (stereo not shown)			10 to 100	> 100
O=S(=O)(N1CCOCC1)N1CCC2=Cc3c(cnn3-c3ccc(F)cc3)CC2(Cc2ccc(F)cc2)C1 (stereo not shown)			10 to 100	> 100
CC(C)(C)c1ccc(S(=O)(=O)N2CCC3=Cc4c(cnn4-c4ccc(C(F)(F)F)cc4)CC3(Cc3ccccc3)C2)cc1 (stereo not shown) [drawing 238]	10 to 100			
CC(C)(C)c1ccc(S(=O)(=O)N2CCC3=Cc4c(cnn4-c4ccc(C(F)(F)F)cc4)CC3(Cc3ccccc3)C2)cc1 (stereo not shown) [drawing 254]	10 to 100			
CC(C)(C)c1ccc(S(=O)(=O)N2CCC3=Cc4c(cnn4Cc4cccc(O)c4)CC3(Cc3ccccc3)C2)cc1 (stereo not shown) [drawing 257]	> 100			
